Measured values from patent US7919517B2, “Indazole derivatives” (Kyowa Hakko Kirin Co., Ltd., priority 2003, dated 2011).
Counter-ions that a name gives are not always drawn.

Tests used:
Assay type in all cases: cell-based
[1] = test system: human acute myeloid leukemia cell line MV-4-11; experiment: Cytostatic activity on leukemia cell line MV-4-11 (WST-1); details: Homo sapiens, MV4-11; 10 μmol/L, 72 hours, MV-4-11 cells; read-out: cytostatic rate MV-4-11 (%) (10 μmol/L)
Method: (§1) The cytostatic rates of a test compound on human acute myeloid leukemia cell lines MV-4-11 and ML-1, and human chronic myeloid leukemia cell line K562 were determined in the following manner.
(§2) Each cell was cultured using Roswell Park Memorial Institute's Medium (RPMI) 1640 (Gibco, Catalog No. 11875-093) containing 10% fetal bovine serum (Gibco, Catalog No. 10437-028) and 1% penicillin/streptomycin (1:1) (Gibco, Catalog No. 15140-122). Each 80 μL of the MV-4-11 cell having a concentration of 7.5×10^4 cells/mL (or the ML-1 cell or K562 cell having a concentration of 2.5×10^4 cells/mL) was inoculated to wells of a TC MICROWELL 96U plate (Nalge Nunc International, Catalog No. 163320) and was cultured in a 5% carbon dioxide gas incubator at 37° C. for 4 hours. As a blank, only RPMI medium (80 μL) was added to a well. Each 20 μL of a solution of the test compound in dimethyl sulfoxide (DMSO) which was prepared to make the final concentration to 10 μmol/L, was added to the MV-4-11 cell, ML-1 cell and K562 cell, respectively. Each 20 μL of DMSO was added to the control well and the blank well to […]. After adding the test compound, the cells were incubated in a 5% carbon dioxide gas incubator at 37° C. for 72 hours. After adding 20 μL of WST-1 reagent {4-[3-(4-iodophenyl)-2-(4-nitrophenyl)-2H-5-tetrazolio]-1,3-benzene disulfonate sodium salt} (Roche Diagnostics K.K., Catalog No. 1644807) diluted to 50% with RPMI medium, the cells were further incubated at 37° C. for 2 hours. Then, the absorbances at 450 nm (reference wavelength: 690 nm) were determined with a microplate spectrophotometer SPECTRA max 340PC (Molecular Devices Corporation). The relative growth (%) of a well to which the test compound had been added was determined while setting the absorbance of a well to which not the test compound but DMSO alone had been added (control) at 100% and that of a well containing RPMI medium alone at 0%. The cytostatic rate (%) of the test compound was determined by subtracting the calculated relative growth from 100.

[2] = test system: human acute myeloid leukemia cell line ML-1; experiment: Cytostatic activity on leukemia cell line ML-1 (WST-1); details: Homo sapiens, ML1; 10 μmol/L, 72 hours, ML-1 cells; read-out: cytostatic rate ML-1 (%) (10 μmol/L)
Method: as §1, §2

[3] = test system: human chronic myeloid leukemia cell line K562; experiment: Cytostatic activity on leukemia cell line K562 (WST-1); details: Homo sapiens; 10 μmol/L, 72 hours, K562 cells; read-out: cytostatic rate K562 (%) (10 μmol/L)
Method: as §1, §2

[4] = test system: human colon cancer cell line Colo205; experiment: Cytostatic activity on solid carcinoma cell line Colo205 (WST-1); details: Homo sapiens, COLO 205; 10 μmol/L, 72 hours, Colo205 cells; read-out: cytostatic rate Colo205 (%) (10 μmol/L)
Method: as §2
The cytostatic rate of a test compound on the human colon cancer cell line Colo205 was determined in the following manner.
The cell was cultured using Roswell Park Memorial Institute's Medium (RPMI) 1640 (Gibco, Catalog No. 11875-093) containing 10% fetal bovine serum (Gibco, Catalog No. 10437-028) and 1% penicillin/streptomycin (1:1) (Gibco, Catalog No. 15140-122). Each 80 μL of the Colo205 having a concentration of 1.25×10^4 cells/mL was inoculated to wells of a TC MICROWELL 96F plate (Nalge Nunc International, Catalog No. 167008) and was cultured in a 5% carbon dioxide gas incubator at 37° C. for 24 hours. As a blank, only RPMI (80 μL) was added to a well. Each 20 μL of a solution of the test compound in DMSO which was prepared to make the final concentration to 10 μmol/L, was added to the Colo205 cell. Each 20 μL of DMSO was added to the control well and the blank well to […]. After adding the test compound, the cell was incubated in a 5% carbon dioxide gas incubator at 37° C. for 72 hours. The cytostatic rate (%) was then determined in the same way as the leukemia cell lines.

Compound	inhibition at 10 µM [1]	inhibition at 10 µM [2]	inhibition at 10 µM [3]	inhibition at 10 µM [4]
COCC(=O)N1CCN(C(=O)c2ccc(/C=C/c3n[nH]c4ccccc34)cc2)CC1 [Compound 65, (E)-4-methoxyacetyl-1-{4-[2-(1H-indazol-3-yl)vinyl]benzoyl}piperazine]	97%	86%	85%	88%
CCN(CC)C(=O)c1ccc(/C=C/c2n[nH]c3ccccc23)cc1 [Compound 15, (E)-N,N-Diethyl-4-[2-(1H-indazol-3-yl)vinyl]benzamide hydrochloride]	91%	94%	100%	92%
COCCN1CCN(C(=O)c2ccc(/C=C/c3n[nH]c4ccccc34)cc2)CC1=O [Compound 134, (E)-4-{4-[2-(1H-indazol-3-yl)vinyl]benzoyl}-1-(2-methoxyethyl)piperazin-2-one hydrochloride]	100%	88%	91%	91%
N[C@H]1CCN(C(=O)c2ccc(/C=C/c3n[nH]c4ccccc34)cc2)C1 [Compound 159, (S)-(E)-1-{4-[2-(1H-indazol-3-yl)vinyl]benzoyl}-3-aminopyrrolidine]	99%	86%	93%	92%
O=C(c1ccc(/C=C/c2n[nH]c3ccccc23)cc1)N1CCN(C(=O)c2ccsc2)CC1 [Compound 58, (E)-4-(3-thiophenecarbonyl)-1-{4-[2-(1H-indazol-3-yl)vinyl]benzoyl}piperazine]	96%	74%	89%	85%
CCOCC(=O)N1CCN(C(=O)c2ccc(/C=C/c3n[nH]c4ccccc34)cc2)CC1 [Compound 128, (E)-4-ethoxyacetyl-1-{4-[2-(1H-indazol-3-yl)vinyl]benzoyl}piperazine]	98%	79%	87%	88%
COC(=O)N1CCN(C(=O)c2ccc(/C=C/c3n[nH]c4ccccc34)cc2)CC1 [Compound 75, (E)-4-methoxycarbonyl-1-{4-[2-(1H-indazol-3-yl)vinyl]benzoyl}piperazine hydrochloride]	99%	88%	85%	88%
CS(=O)(=O)Nc1cc(/C=C/c2n[nH]c3ccccc23)ccc1OCCN1CCOCC1 [Compound 7, (E)-N-{5-[2-(1H-Indazol-3-yl)vinyl]-2-(2-morpholinoethoxy)phenyl}methanesulfonamide]	97%	97%	98%	89%
CC(C)(C)CC(=O)N1CCN(C(=O)c2ccc(/C=C/c3n[nH]c4ccccc34)cc2)CC1 [Compound 78, (E)-4-(3,3-dimethylbutyryl)-1-{4-[2-(1H-indazol-3-yl)vinyl]benzoyl}piperazine]	98%	64%	90%	82%
NC1CCN(C(=O)c2ccc(/C=C/c3n[nH]c4ccccc34)cc2)CC1 [Compound 64, (E)-1-{4-[2-(1H-indazol-3-yl)vinyl]benzoyl}-4-aminopiperidine]	98%	89%	91%	94%
O=C(NN1CCN(C(=O)c2ccc(/C=C/c3n[nH]c4ccccc34)cc2)CC1)N1CCOCC1 [Compound 150, (E)-1-{4-[2-(1H-indazol-3-yl)vinyl]benzoyl}-4-(morpholinocarbonylamino)piperazine]	97%	67%	90%	88%
O=C(c1ccc(/C=C/c2n[nH]c3ccccc23)cc1)N1CCNCC1 [Compound 18, (E)-1-{4-[2-(1H-indazol-3-yl)vinyl]benzoyl}piperazine]	98%	76%	91%	85%
CC(C)(C)OC(=O)NN1CCN(C(=O)c2ccc(/C=C/c3n[nH]c4ccccc34)cc2)CC1 [Compound 148, (E)-1-{4-[2-(1H-indazol-3-yl)vinyl]benzoyl}-4-(tert-butyloxycarbonylamino)piperazine]	98%	81%	91%	83%
O=C(c1ccc(/C=C/c2n[nH]c3ccccc23)cc1)N1CCC(C(=O)N2CCOCC2)CC1 [Compound 51, (E)-1-{4-[2-(1H-indazol-3-yl)vinyl]benzoyl}-4-(morpholinocarbonyl)piperidine]	98%	89%	95%	90%
CCC(C)N1CCN(C(=O)c2ccc(/C=C/c3n[nH]c4ccccc34)cc2)CC1=O (stereo not drawn) [Compound 116, (E)-4-{4-[2-(1H-indazol-3-yl)vinyl]benzoyl}-1-(sec-butyl)piperazin-2-one hydrochloride]	98%	79%	88%	91%
O=CN1CCN(C(=O)c2ccc(/C=C/c3n[nH]c4ccccc34)cc2)CC1 [Compound 19, (E)-4-{4-[2-(1H-indazol-3-yl)vinyl]benzoyl}piperazine-1-carbaldehyde]	97%	89%	78%	89%
CN(C)CC(=O)N1CCN(C(=O)c2ccc(/C=C/c3n[nH]c4ccccc34)cc2)CC1 [Compound 125, (E)-4-dimethylaminoacetyl-1-{4-[2-(1H-indazol-3-yl)vinyl]benzoyl}piperazine]	98%	79%	91%	86%
O=C(c1ccccc1)N1CCN(C(=O)c2ccc(/C=C/c3n[nH]c4ccccc34)cc2)CC1 [Compound 46, (E)-1-{4-[2-(1H-indazol-3-yl)vinyl]benzoyl}-4-benzoylpiperazine]	98%	82%	93%	87%
NCC(=O)N1CCN(C(=O)c2ccc(/C=C/c3n[nH]c4ccccc34)cc2)CC1 [Compound 61, (E)-4-aminoacetyl-1-{4-[2-(1H-indazol-3-yl)vinyl]benzoyl}piperazine hydrochloride]	98%	79%	85%	87%
CC(C)(C)C(=O)N1CCN(C(=O)c2ccc(/C=C/c3n[nH]c4ccccc34)cc2)CC1 [Compound 40, (E)-1-{4-[2-(1H-indazol-3-yl)vinyl]benzoyl}-4-(pivaloyl)piperazine]	98%	67%	96%	88%
C[C@H]1CN(C(=O)c2ccc(/C=C/c3n[nH]c4ccccc34)cc2)CCN1 [Compound 101, (S)-(E)-1-{4-[2-(1H-indazol-3-yl)vinyl]benzoyl}-3-methylpiperazine dihydrochloride]	99%	77%	92%	87%
